The NIST ThermoML archive (doi:10.1021/je500804j)

Assay: mn = molality of the nth substance listed, in mol/kg
Settings: 101 kPa, Liquid, Alternating current cell with electrodes

CCCCCCCC[N+](C)(C)CCCCCC[N+](C)(C)CCCCCCCC.[Br-].[Br-] + O
Settings | electrical conductivity [S/m]
303.15 K, m1 = 0.1147 | 1.235
303.15 K, m1 = 0.1161 | 1.242
308.15 K, m1 = 0.00368 | 0.09215
308.15 K, m1 = 0.00726 | 0.1725
308.15 K, m1 = 0.01076 | 0.2453
308.15 K, m1 = 0.01417 | 0.3115
308.15 K, m1 = 0.0175 | 0.3725
308.15 K, m1 = 0.02076 | 0.4289
308.15 K, m1 = 0.02394 | 0.4827
308.15 K, m1 = 0.02704 | 0.5324
308.15 K, m1 = 0.03008 | 0.5804
308.15 K, m1 = 0.03304 | 0.6259
308.15 K, m1 = 0.03595 | 0.6694
308.15 K, m1 = 0.03878 | 0.7099
308.15 K, m1 = 0.04156 | 0.7496
308.15 K, m1 = 0.04428 | 0.7852
308.15 K, m1 = 0.04693 | 0.8231
308.15 K, m1 = 0.05209 | 0.8882
308.15 K, m1 = 0.05458 | 0.9163
308.15 K, m1 = 0.05703 | 0.9472
308.15 K, m1 = 0.05942 | 0.9728
308.15 K, m1 = 0.06177 | 1.001
308.15 K, m1 = 0.06407 | 1.027
308.15 K, m1 = 0.06633 | 1.05
308.15 K, m1 = 0.06854 | 1.072
308.15 K, m1 = 0.07072 | 1.092
308.15 K, m1 = 0.07284 | 1.111
308.15 K, m1 = 0.07493 | 1.128
308.15 K, m1 = 0.07698 | 1.149
308.15 K, m1 = 0.079 | 1.164
308.15 K, m1 = 0.08097 | 1.182
308.15 K, m1 = 0.08291 | 1.195
308.15 K, m1 = 0.08482 | 1.211
308.15 K, m1 = 0.08669 | 1.225
308.15 K, m1 = 0.08852 | 1.238
308.15 K, m1 = 0.09033 | 1.251
308.15 K, m1 = 0.0921 | 1.264
308.15 K, m1 = 0.09385 | 1.276
308.15 K, m1 = 0.09556 | 1.286
308.15 K, m1 = 0.09725 | 1.298
308.15 K, m1 = 0.0989 | 1.308
308.15 K, m1 = 0.1005 | 1.319
308.15 K, m1 = 0.1021 | 1.326
308.15 K, m1 = 0.1037 | 1.337
308.15 K, m1 = 0.1053 | 1.346
308.15 K, m1 = 0.1068 | 1.354
308.15 K, m1 = 0.1083 | 1.363
308.15 K, m1 = 0.1098 | 1.37
308.15 K, m1 = 0.1112 | 1.38
308.15 K, m1 = 0.1127 | 1.385
308.15 K, m1 = 0.1141 | 1.392
313.15 K, m1 = 0.00383 | 0.1036
313.15 K, m1 = 0.00755 | 0.1854
313.15 K, m1 = 0.01119 | 0.2548
313.15 K, m1 = 0.01473 | 0.3279
313.15 K, m1 = 0.01819 | 0.3993
313.15 K, m1 = 0.02156 | 0.4651
313.15 K, m1 = 0.02485 | 0.5281
313.15 K, m1 = 0.02806 | 0.5866
313.15 K, m1 = 0.0312 | 0.6397
313.15 K, m1 = 0.03426 | 0.6934
313.15 K, m1 = 0.03725 | 0.7428
313.15 K, m1 = 0.04018 | 0.7886
313.15 K, m1 = 0.04304 | 0.8328
313.15 K, m1 = 0.04583 | 0.8749
313.15 K, m1 = 0.04857 | 0.9139
313.15 K, m1 = 0.05386 | 0.9883
313.15 K, m1 = 0.05642 | 1.024
313.15 K, m1 = 0.05893 | 1.055
313.15 K, m1 = 0.06138 | 1.086
313.15 K, m1 = 0.06379 | 1.114
313.15 K, m1 = 0.06615 | 1.139
313.15 K, m1 = 0.06845 | 1.165
313.15 K, m1 = 0.07072 | 1.19
313.15 K, m1 = 0.07293 | 1.212
313.15 K, m1 = 0.07511 | 1.236
313.15 K, m1 = 0.07724 | 1.257
313.15 K, m1 = 0.07933 | 1.276
313.15 K, m1 = 0.08138 | 1.296
313.15 K, m1 = 0.08339 | 1.314
313.15 K, m1 = 0.08537 | 1.332
313.15 K, m1 = 0.0873 | 1.348
313.15 K, m1 = 0.08921 | 1.364
313.15 K, m1 = 0.09107 | 1.378
313.15 K, m1 = 0.09291 | 1.392
313.15 K, m1 = 0.09471 | 1.406
313.15 K, m1 = 0.09648 | 1.418
313.15 K, m1 = 0.09822 | 1.432
313.15 K, m1 = 0.09993 | 1.444
313.15 K, m1 = 0.1016 | 1.457
313.15 K, m1 = 0.1032 | 1.467
313.15 K, m1 = 0.1049 | 1.476
313.15 K, m1 = 0.1065 | 1.487
313.15 K, m1 = 0.108 | 1.493
313.15 K, m1 = 0.1096 | 1.505
313.15 K, m1 = 0.1111 | 1.516
313.15 K, m1 = 0.1126 | 1.527
313.15 K, m1 = 0.1141 | 1.537
313.15 K, m1 = 0.1155 | 1.545
